Results as given in PubChem BioAssay AID2060605 (Molecular Pharmacology Branch, DTP, NCI, 2025).

System: 947758-054-R-J2-PDC spheroid growth, percent test/control
Test: Anticancer human tumor 947758-054-R-J2-PDC patient-derived colon adenocarcinoma cell line growth inhibition [CLK]
Conditions: spheroids with HUVEC and MSC; for IC50: curve of first compound; for viability, T/C: stronger effect = lower value
Outline: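 Multi-cell-type spheroids combined patient-derived tumor cells with HUVEC endothelial cells and human mesenchymal stem cells. Paired agents were dosed in half-log steps down from about clinical Cmax, or from 10 microM where Cmax was unknown.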
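Further: spheroids exposed to compounds for one week before readout.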
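Wherever viability, T/C is given: 100% = DMSO vehicle control wells.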

NC(=O)C(=Cn1cnc(-c2cc(C(F)(F)F)cc(C(F)(F)F)c2)n1)c1cncnc1 + CN1CCN(c2cc(C(=O)Nc3cc4cc(-c5cnn(C)c5)ccc4cn3)ccn2)CC1
IC50 (second compound 0.0316 µM): 78.5 nM | IC50 (second compound 0.1 µM): < 9.49 nM | IC50 (second compound 0.316 µM): < 9.49 nM | IC50 (second compound 1 µM): < 9.49 nM | IC50 (second compound 3.16 µM): < 9.49 nM | IC50 (second compound 10 µM): < 9.49 nM | viability, T/C (second compound 0.0316 µM, first compound 0.00949 µM): 195% | viability, T/C (second compound 0.0316 µM, first compound 0.03 µM): 224% | viability, T/C (second compound 0.0316 µM, first compound 0.0949 µM): 44.3% | viability, T/C (second compound 0.0316 µM, first compound 0.3 µM): 19% | viability, T/C (second compound 0.0316 µM, first compound 0.949 µM): 10.3% | viability, T/C (second compound 0.0316 µM, first compound 3 µM): 0.87% | viability, T/C (second compound 0.1 µM, first compound 0.00949 µM): 42.9% | viability, T/C (second compound 0.1 µM, first compound 0.03 µM): 24.9% | viability, T/C (second compound 0.1 µM, first compound 0.0949 µM): 16.4% | viability, T/C (second compound 0.1 µM, first compound 0.3 µM): 6.99% | viability, T/C (second compound 0.1 µM, first compound 0.949 µM): 0.38% | viability, T/C (second compound 0.1 µM, first compound 3 µM): 0.42% | viability, T/C (second compound 0.316 µM, first compound 0.00949 µM): 0.44% | viability, T/C (second compound 0.316 µM, first compound 0.03 µM): 0.27% | viability, T/C (second compound 0.316 µM, first compound 0.0949 µM): 0.21% | viability, T/C (second compound 0.316 µM, first compound 0.3 µM): 1.5% | viability, T/C (second compound 0.316 µM, first compound 0.949 µM): 0.15% | viability, T/C (second compound 0.316 µM, first compound 3 µM): 0.3% | viability, T/C (second compound 1 µM, first compound 0.00949 µM): 0.13% | viability, T/C (second compound 1 µM, first compound 0.03 µM): 0.18% | viability, T/C (second compound 1 µM, first compound 0.0949 µM): 0.39% | viability, T/C (second compound 1 µM, first compound 0.3 µM): 0.33% | viability, T/C (second compound 1 µM, first compound 0.949 µM): 1.84% | viability, T/C (second compound 1 µM, first compound 3 µM): 0.25% | viability, T/C (second compound 3.16 µM, first compound 0.00949 µM): 0.31% | viability, T/C (second compound 3.16 µM, first compound 0.03 µM): 0.76% | viability, T/C (second compound 3.16 µM, first compound 0.0949 µM): 0.81% | viability, T/C (second compound 3.16 µM, first compound 0.3 µM): 0.66% | viability, T/C (second compound 3.16 µM, first compound 0.949 µM): 1.31% | viability, T/C (second compound 3.16 µM, first compound 3 µM): 1.56% | viability, T/C (second compound 10 µM, first compound 0.00949 µM): 0.47% | viability, T/C (second compound 10 µM, first compound 0.03 µM): 0.74% | viability, T/C (second compound 10 µM, first compound 0.0949 µM): 1.04% | viability, T/C (second compound 10 µM, first compound 0.3 µM): 0.9% | viability, T/C (second compound 10 µM, first compound 0.949 µM): 1.38% | viability, T/C (second compound 10 µM, first compound 3 µM): 0.53%
